One experiment has as its target T1, OGFOD1 (hsOGFOD1_FL) (Homo sapiens, UniProt Q8N543).
T1 construct: His6 tag (N-terminal pET-28a leader); made in house; host or cells: E. coli BL21(DE3)
T1 sequence (Q8N543 1-542): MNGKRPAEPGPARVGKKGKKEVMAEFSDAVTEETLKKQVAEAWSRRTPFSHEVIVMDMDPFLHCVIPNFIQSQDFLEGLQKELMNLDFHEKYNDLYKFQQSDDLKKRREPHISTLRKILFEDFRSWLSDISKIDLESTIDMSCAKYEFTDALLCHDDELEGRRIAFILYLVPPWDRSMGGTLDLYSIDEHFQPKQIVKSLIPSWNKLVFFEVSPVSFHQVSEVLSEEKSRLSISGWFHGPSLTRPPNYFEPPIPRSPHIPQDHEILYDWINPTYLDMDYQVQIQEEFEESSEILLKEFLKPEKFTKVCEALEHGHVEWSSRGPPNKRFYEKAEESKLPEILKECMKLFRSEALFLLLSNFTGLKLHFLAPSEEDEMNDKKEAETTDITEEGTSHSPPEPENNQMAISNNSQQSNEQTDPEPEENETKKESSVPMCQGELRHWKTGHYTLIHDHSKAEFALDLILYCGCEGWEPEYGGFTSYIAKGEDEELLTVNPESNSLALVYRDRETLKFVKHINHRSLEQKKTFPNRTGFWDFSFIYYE
Briefly: Thermal stability shift assay (SYPRO Orange). Format: binding. The settings on record: change in apparent protein melting temperature; compound 20 μM, 1 μM hsOGFOD1_FL, 50 μM MnCl2. The protocol:
Assays were conducted in 50 mM HEPES buffer, 150 mM NaCl, pH 7.5. A stock solution of MnCl2 (500 mM) in 20 mM HCl was prepared, and diluted to 5 mM with water. A master mix containing 2.085 mL buffer, 21 μL MnCl2 (5 mM, 50 μM final), 21 μL hsOGFOD1_FL (100 μM, 1 μM final), and 2.1 μL SYPRO Orange dye was prepared. The screen was conducted using stock solutions of compounds (400 μIM in DMSO) at a final concentration of 20 μM, by mixing 1 μL compound stock solution with 19 μL assay master mix. Incubations were performed in a white 96-well RT-PCR plate and subjected to thermal cycling as per an established protocol. Data was analysed in Microsoft Excel and GraphPad Prism.
The effect of small molecules on the stability of proteins to thermal denaturation was assessed by the change in apparent protein melting temperature, defined as the temperature at which equal amounts of folded and unfolded protein exist in solution. Unfolding was quantified by measurement of the fluorescence increase of SYPRO® Orange dye (Invitrogen) upon binding to hydrophobic residues that are exposed during unfolding. Approximately 400 small-molecule compounds were tested at a final concentration of 20 μM. Stabilization data for selected compounds are shown in below. Structures of the compounds are set out below.

The target of experiment [1] is T2, OGFOD1 (Homo sapiens, UniProt Q8N543).
T2 construct: His6 tag (N-terminal pET-28a leader); made in house; host or cells: E. coli BL21(DE3)
T2 sequence (Q8N543 1-542): T1 sequence (Q8N543 1-542)
Description: MALDI-based hydroxylation assay, inhibitor screen. It is filed as biochemical. The settings on record: general statement in the description, no conditions given. The protocol: A library of 150 compounds comprising known and potential inhibitors of 2OG oxygenases was screened against OGFOD1 by a MALDI-based hydroxylation assay. Single-point measurements were conducted in duplicate, using 4 μM OGFOD1 at 100 μM final compound concentration in the presence of excess (300 μM) 2OG, with incubation at 37° C. for 30 min.

For a further experiment, the target named is T3, full-length OGFOD1 (Homo sapiens, UniProt Q8N543).
T3 construct: His6 tag (N-terminal pET-28a leader); made in house; host or cells: E. coli BL21(DE3)
T3 sequence (Q8N543 1-542): T1 sequence (Q8N543 1-542)
Description: 2OG turnover assay. Format: biochemical. The settings on record: 1 mM inhibitor, 37° C., 20 min. The method, then:
Values shown are averages of two or three experiments. Error bars represent standard deviations. The assay was carried out for 20 min at 37° C. using 8 μM recombinant full-length human OGFOD1 (SEQ ID NO:1), 288 μM 2OG, 3.7 μM 1-[^14C]-2OG (specific activity […], stock concentration 1.83 mM), RPS23 peptide, 100 μM (NH4)2Fe(SO4)2, 4 mM ascorbate, 0.66 mg/ml catalase, 1 mM DTT, 50 mM Tris.HCl pH 7.5, and with one of OGFOD1, (NH4)2Fe(SO4)2 and ascorbate missing from the assay. The assay was also performed in the presence of 1 mM pyridine 2,4-dicarboxylic acid (2,4-PDCA).
Constructs of OGFOD1 encoding full-length protein or its C-terminal domain were tested for enzymatic activity using a 2OG turnover assay (Kivirikko and Myllyla (1982) Methods in Enzymology 82: […]). […]
These were diluted to a total volume of 100 μl with 50 mM Tris-Cl buffer, pH 7.5. […] The Eppendorf tubes containing the hyamine hydroxide were transferred to scintillation vials, mixed with 5 mL OptiPhase Liquid Scintillation Cocktail (Fisher Scientific) and total ^14C counts quantified using a Beckman LS6500 Multi-Purpose Scintillation Counter. Conversion of 2OG was calculated from the percentage of 1-[^14C]-2OG that had been converted into gaseous ^14CO2. […]

In experiment [2] the target is T2, OGFOD1. Description: OGFOD1-mediated hydroxylation of RPS23 20mer peptide with generic 2OG oxygenase inhibitors. It is filed as biochemical. The settings on record: 1 mM inhibitor. The protocol:
OGFOD1-mediated hydroxylation of the initially identified 20mer peptide sequence of human RPS23 was strictly dependent on presence of 2OG and Fe(II), and hydroxylation was reduced in presence of 1 mM of generic 2OG oxygenase inhibitors such as N-oxalyl glycine (NOG), pyridine 2,4-dicarboxylic acid (2,4-PDCA) and transition metal ions such as Co^II.

For experiment [3], the target named is T2, OGFOD1. Description: MALDI assay of OGFOD1 specificity towards RPS23 and RPS23-like peptides. Format: biochemical. The settings on record: peptide as substrate; 4 μM OGFOD1/100 μM peptide, 37° C., 30 min; symbols not defined. The method, then:
To investigate the specificity of OGFOD1 towards variations in the sequence and length, multiple corresponding to RPS23 and RPS23-like sequences were synthesized and tested. MALDI assays were performed using a 1:25 protein:peptide (4 μM/100 μM) ratio, with incubation at 37° C. for 30 min.
Mutation of prolyl to alanine or isoleucine residues completely abolished hydroxylation, providing further evidence for OGFOD1 acting as a prolyl hydroxylase. […] This observation is consistent with the high evolutionary conservation of the amino acids following, but not of those preceding the prolyl (Pro-62) residue in RPS23.

For the molecule `O=C(O)CCC(=O)Nc1cc2ccccc2cn1` [Compound 1], the “Stabilization (° C.)” value on OGFOD1 (hsOGFOD1_FL) was “+8.4 °C”.

`O=C(O)CCC(=O)NNC(=O)c1ccc2ccccc2c1` [Compound 2]: on OGFOD1 (hsOGFOD1_FL), the “Stabilization (° C.)” value is “+7.1 °C”.

Regarding `O=C(O)CCC(=O)NNS(=O)(=O)c1ccccc1` [Compound 3], at OGFOD1 (hsOGFOD1_FL), the “Stabilization (° C.)” value is “+7.1 °C”.

Turning to `O=C(O)CNC(=O)c1nc(Cl)c2ccccc2c1O` [Compound 4, 2-(1-Chloro-4-hydroxyisoquinoline-3-carboxamido)acetic acid], at OGFOD1 (hsOGFOD1_FL), the “Stabilization (° C.)” value is “+7.0 °C”. The “inhibition of OGFOD1 prolyl hydroxylase activity” value (shortened to “inhibition”) is recorded as “inhibit OGFOD1” on OGFOD1 [1] and “inhibitory” against OGFOD1 [1] (listed as FG2216).

For the molecule `O=C(O)c1ccnc(-c2cc(C(=O)O)ccn2)c1` [Compound 5], the “Stabilization (° C.)” value on OGFOD1 (hsOGFOD1_FL) was “+7.5 °C”.

In the case of `O=C(O)CCC(=O)Nc1ccc(Br)cn1` [Compound 6], at OGFOD1 (hsOGFOD1_FL), the “Stabilization (° C.)” value is “+7.0 °C”.

As for `N#Cc1ccc2c(=O)c(C(=O)O)c[nH]c2c1` [Compound 7], the “Stabilization (° C.)” value on OGFOD1 (hsOGFOD1_FL) was “+7.5 °C”.

In the case of `CCC(=O)C1C(=O)CC(C(=O)O)CC1=O` (centres unmarked) [Compound 8, Prohexadione], at OGFOD1 (hsOGFOD1_FL), the “Stabilization (° C.)” value is “+6.9 °C”.

Turning to `CC(NC(=O)C(=O)O)C(=O)O` (centres unmarked) [Compound 9], the “Stabilization (° C.)” value at OGFOD1 (hsOGFOD1_FL) was “+6.3 °C”.

In the case of `O=C(O)CCNC(=O)c1nc2ccccc2cc1O` [Compound 10], the “Stabilization (° C.)” value at OGFOD1 (hsOGFOD1_FL) is “+7.2 °C”.

`O=C(O)c1ccnc(C(=O)O)c1` [Compound 11, Pyridine 2,4-dicarboxylic acid]: at OGFOD1 (hsOGFOD1_FL), the “Stabilization (° C.)” value is “+6.7 °C”. For the same molecule, the “inhibition” value against OGFOD1 [1] is “inhibitory”. Besides, on full-length OGFOD1, the “OGFOD1-catalyzed 2OG turnover” value is listed as “inhibited”. The “hydroxylation of RPS23 20mer peptide” value at OGFOD1 [2] is recorded as “reduced”.

As to `O=C(O)CNC(=O)C(=O)O` [N-oxalylglycine], the “inhibition” value at OGFOD1 [1] is listed as “inhibitory”. Moreover, the “hydroxylation of RPS23 20mer peptide” value on OGFOD1 [2] is listed as “reduced”.

Regarding `O=C(O)c1cc(O)c(O)c(O)c1` [gallic acid], the “inhibition” value at OGFOD1 [1] is reported as “inhibitory”.

As for “CODD: PHD2 C-terminal oxygen-dependent degradation domain (CODD) substrate of HIF-1α”, in the experiment with OGFOD1 [3], the Hydroxylation entry is on record as “No hydroxylation”.

For the origin of these results see patent publication US9228224B2, “Method for assaying OGFOD1 activity” (ISIS INNOVATION LIMITED, priority 2011, dated 2016).
